# According to patent publication US20220151274A1, “PREPARATIONS WITH C-METHYL FLAVONOIDS” (BRAIN AG, priority 2018, published 2022):
# Experiment: Tasting of high-purity Pinoquercetin + potassium chloride (KCl)
# Type: in vivo
# Conditions: for bitterness of KCl is reduced by the product, share of responses: 14 responses
# Procedure: The sensory evaluation of the samples was performed twice by a team of seven experienced assessors.
# [1] = 10 μM (3.2 ppm) with 1.5% potassium chloride in spring water
# [2] = 25 μM (8 ppm) with 1.5% potassium chloride in spring water
# [3] = 50 μM (16 ppm) with 1.5% potassium chloride in spring water
smiles,measurement,setting,value
Cc1c(O)cc2oc(-c3ccc(O)c(O)c3)c(O)c(=O)c2c1O [Pinoquercetin],"bitterness of KCl is reduced by the product, share of responses",1 μM (0.3 ppm) with 1.5% potassium chloride in spring water,product in 64% of responses average
same,dominant flavour,[1],sure dominant flavour: saltiness
same,"bitterness of KCl is reduced by the product, share of responses",[1],product in 64% of responses average
same,dominant flavour,[2],flavour: saltiness
same,"bitterness of KCl is reduced by the product, share of responses",[2],product in 64% of responses average
same,dominant flavour,[3],flavour: saltiness
same,"bitterness of KCl is reduced by the product, share of responses",[3],product in 71% of responses average
